Laboratory results: ChEMBL document CHEMBL4118177, “Valproic acid induces three novel cytotoxic secondary metabolites in Diaporthe sp., an endophytic fungus from Datura inoxia Mill” (Bioorg Med Chem Lett, 2018)
Active and inactive are the calls of the source. The rule behind the calls is not given here.

Tests used:
[1] = Antioxidant activity assessed as DPPH free radical scavenging activity at 6.25 uM after 30 mins in dark by spectrophotometric method relative to control; assay type: functional
[2] = Antioxidant activity assessed as DPPH free radical scavenging activity after 30 mins in dark by spectrophotometric method; assay type: functional
[3] = tested on: MCF7; assay: Cytotoxicity against human MCF7 cells assessed as reduction in cell viability after 48 hrs by MTT assay; assay type: functional, cell-based; details: MCF7, 48 h
[4] = Antioxidant activity assessed as DPPH free radical scavenging activity at 25 uM after 30 mins in dark by spectrophotometric method relative to control; assay type: functional
[5] = tested on: Staphylococcus aureus; assay: Antibacterial activity against Staphylococcus aureus ATCC 25923 at 62.5 uM after 24 hrs; assay type: functional, organism-based
[6] = tested on: T47D; assay: Cytotoxicity against human T47D cells; assay type: functional, cell-based
[7] = tested on: PC-3; assay: Cytotoxicity against human PC3 cells assessed as reduction in cell viability after 48 hrs by MTT assay; assay type: functional, cell-based; details: PC-3, 48 h
[8] = Antioxidant activity assessed as DPPH free radical scavenging activity at 12.5 uM after 30 mins in dark by spectrophotometric method relative to control; assay type: functional
[9] = Antioxidant activity assessed as DPPH free radical scavenging activity at 50 uM after 30 mins in dark by spectrophotometric method relative to control; assay type: functional
[10] = Antioxidant activity assessed as DPPH free radical scavenging activity at 100 uM after 30 mins in dark by spectrophotometric method relative to control; assay type: functional
[11] = tested on: MIA PaCa-2; assay: Cytotoxicity against human MIAPaCa2 cells assessed as reduction in cell viability after 48 hrs by MTT assay; assay type: functional, cell-based; details: MIA PaCa-2, 48 h
[12] = tested on: Escherichia coli; assay: Antibacterial activity against Escherichia coli ATCC 25922 at 62.5 uM after 24 hrs; assay type: functional, organism-based
[13] = tested on: Pseudomonas aeruginosa; assay: Antibacterial activity against Pseudomonas aeruginosa ATCC 27853 at 62.5 uM after 24 hrs; assay type: functional, organism-based

SMILES | Activity [1] | EC50 [2] | IC50 [3] | Activity [4] | Activity [5] | IC50 [6] | IC50 [7] | Activity [8] | Activity [9] | Activity [10] | IC50 [11] | Activity [12] | Activity [13]
CCC[C@@H]1C[C@H](O)[C@@H](O)/C=C/C=C\C(=O)O1 | 35% | > 100 µM | 29 µM | 37.4% | inactive | 7 µM | 18 µM | 36.6% | 38.5% | 39.1% | 32 µM | inactive | inactive
O=C(O)c1cn(C2CC2)c2cc(N3CCNCC3)c(F)cc2c1=O |  |  |  |  | Active |  |  |  |  |  |  | Active | Active
CCC[C@H]1OC(=O)/C=C\C=C\[C@H](O)[C@@H](O)[C@@H]1[C@H](C)COC(=O)c1ccc(O)cc1 | 22.1% | 27.5 µM | 30 µM | 48.3% | inactive |  | 14 µM | 26.8% | 59% | 63% | 20 µM | inactive | inactive
CC(=O)O[C@H]1C(=O)[C@@]2(C)[C@H]([C@H](OC(=O)c3ccccc3)[C@]3(O)C[C@H](OC(=O)[C@H](O)[C@@H](NC(=O)c4ccccc4)c4ccccc4)C(C)=C1C3(C)C)[C@]1(OC(C)=O)CO[C@@H]1C[C@@H]2O [PACLITAXEL] |  |  |  |  |  |  | 0.007 µM |  |  |  | 0.006 µM |  | 
CCC[C@@H]1C[C@H](O)[C@@H](OC)/C=C/C=C\C(=O)O1 | 2.37% | > 100 µM | > 50 µM | 7.12% | inactive |  | 22 µM | 4.04% | 8.13% | 10% | 34 µM | inactive | inactive
O=C1O[C@H]([C@@H](O)CO)C(O)=C1O [ASCORBIC ACID] | 52.7% | 6.2 µM |  | 76.5% |  |  |  | 60.9% | 85.8% | 87.8% |  |  | 
CCC/C=C/[C@@H]1OC(=O)c2cc(O)cc(O)c2[C@@H]1O | 34.3% | 10.3 µM | > 50 µM | 58% | inactive |  | > 50 µM | 55% | 59% | 61% | > 50 µM | inactive | inactive
